In US20100227907A1, “Method of Treating Pain by Using Opioids and CAMKIV Inhibitors” (priority 2005, published 2010):

Legend:
[1] = test system: substantia gelatiosa (SG) neurons in lamina II of the dorsal horn; assay: Whole-cell patch clamp recording of sIPSCs in spinal cord slices; format: cell-based, mouse
Description: Postnatal mice (12-19 days old) were anesthetized with 1-2% halothane and the thoracic and lumbar spinal cord were dissected out and put into pre-equilibrated artificial cerebrospinal solution fluid (ACSF) at 1-4° C. The spinal cord was placed into the shallow groove of an agar block, and several drops of 20% gelatin were placed on the low-thoracic and high-lumbar segment to half-embed the spinal cord. The agar block, together with the half-embedded spinal cord, was glued on the stage of a vibratome with cyanoacrylate adhesive, and was immersed in the ice-cold ACSF. Then, transverse slices of the lumber spinal cord (350 μm) were prepared. Slices were transferred to a room temperature submerged recovery chamber with oxygenated (95% O2 and 5% CO2) solution containing (in mM): NaCl, 124; NaHCO3, 25; KCl, 4.4; KH2PO4, 1; CaCl2, 2; MgSO4, 2; glucose, 10. After one hr recovery, slices were placed in a recording chamber on the stage of an Axioskop 2FS microscope (Zeiss) equipped with infrared DIC optics for patch clamp recordings. Substantia gelatiosa (SG) could be identified as a translucent band capping the dorsal part of the gray matter under the microscope. Spontaneous inhibitory postsynaptic currents (sIPSCs) were recorded with an Axon 200B amplifier (Axon Instruments, CA). Recording electrodes (3-5 MΩ) contained a pipette solution composed of (in mM): Cs-gluconate, 120; NaCl, 5; MgCl2 1; EGTA, 0.5; Mg-ATP, 2; Na3GTP, 0.1; HEPES, 10; pH 7.2; 280-300 mOsmol. Access resistance was 15-30 MΩ and was monitored throughout the experiment. Data were discarded if access resistance changed more than 15% during an experiment. The membrane potential was held at […] throughout the experiment. A holding potential of +10 mV was used to record spontaneous inhibitory postsynaptic currents (sIPSCs).

[2] = test system: pCREB expression in the spinal cord; assay: pCREB expression in spinal cord after chronic morphine (western blot); format: in vivo, mouse; details: chronic morphine 10 mg/kg s.c. daily for seven days
Description: Open field locomotor activity was recorded for 1 hr after injection followed by determination of hot plate and tail flick response latencies.
Spinal cords were dounce-homogenized (18 strokes) in 10 volumes of 10 mM Tris-Cl (pH 7.4), 320 mM Sucrose, and 1% SDS. The tissue homogenates were centrifuged at 21,000×g at 4° C. for 5 min. Equal amounts of protein from tissue samples were separated by 4-12% gradient SDS-PAGE (Invitrogen), followed by Western blotting with anti-MOR-1 (1:1000), anti-pCREB (1:1000) (Santa Cruz Biotechnology) or anti-phosphoserine antibody (for immunoprecipitated samples, 1:1000) (Sigma) followed by revelation with ECL (Amersham). Membranes (BioTrace PVDF, Pall Co.) were routinely stripped and re-probed with a monoclonal antibody for actin (1:5000, Sigma) blotting to ensure equal protein loading.

[3] = test system: pCREB in lamina I-II of the dorsal horn; assay: pCREB immunostaining in spinal cord after chronic morphine; format: in vivo, mouse; details: chronic morphine vs saline; both CaMKIV KO and wild-type mice; p<0.001
Description: Spinal cord slices at the lumbar region were prepared using standard histological methods. Slices were incubated with rabbit anti-pCREB IgG (1:250) (Calbiochem) or rabbit anti-MOR IgG (1:500) (ImmunoStar Incorporated) at 4° C. overnight. Followed by donkey anti-rabbit IgG conjugated with Alexa 488 (1:500) (Molecular Probes) for one hour at room temperature. Measurements were made from at least three randomly selected non-contiguous sections in each mouse (3-4 mice per treatment group), observed from coded slides and averaged so that each animal has a mean value for regional immunoreactivity. The total number and density of positive cells were measured in dorsal horn layers I-II and ventral horn layers VI-IX. All data were expressed as a ratio between cell number or density and unit area. Images were obtained with an Olympus microscope. Data were analyzed with ImagePro software (Media-Cybrenetics,).

[4] = test system: CREB activity in HEK293 cells expressing CaMKIV; assay: Ionomycin stimulation of CREB activity (luciferase reporter) in HEK293 cells expressing CaMKIV; format: cell-based; details: 5 μM ionomycin, n=4 wells, p<0.0001
Description: (§1) HEK293 cells were seeded into 96-well plates. The next day, cells were cotransfected with the CaMKIV construct, pGL3-CRE-firefly luciferase and pGL3-CMV-Renilla luciferase constructs using Lipofectamine 2000 reagent (Invitrogen, CA) according to the manufacturer's recommendation. The following day, cells were treated with fresh medium containing DMSO as vehicle control or 5 μM ionomycin (Sigma, Mo.) in the presence or absence of KN62 or KN93 (Sigma, MO) at serial concentrations. Cells were harvested 16 h later. Luciferase activity was assayed with cell lysis by using the dual-luciferase reporter assay system (Promega, WI) according to the manufacturer's protocol.
The dose-dependent inhibitory effect of KN62 and KN93 on CaMKIV transiently expressed in HEK293 cells was determined. CaMKIV can activate CREB and stimulate CREB-mediated transcription through the direct phosphorylation of CREB on Ser-133. To measure the CaMKIV activity by CREB activity assay, the CaMKIV expression plasmids and a CREB luciferase reporter system were cotransfected into HEK293 cells in this study. The calcium ionophore ionomycin treatment can lead to an increase in intracellular Ca^2+ and Ca^2+/CaM levels, which influence CaMKIV activity in cells. Ionomycin (5 μM) can dramatically increase CREB activity in HEK293 cells expressing CaMKIV. […]

[5] = molecular target: T1, CaMKIV transiently expressed in HEK293 cells (Homo sapiens, UniProt Q16566); assay: CREB luciferase reporter assay of CaMKIV activity in ionomycin-treated HEK293 cells transiently expressing CaMKIV; format: cell-based; details: 5 μM ionomycin, n=4 wells; for CREB activity, % of the control level: HEK293 expressing CaMKIV; for IC50: HEK293 transiently expressing CaMKIV, read-out: IC50 for inhibition of CaMKIV (CREB activity)
T1 construct: expressed in transfected cells; host or cells: HEK293
T1 sequence (Q16566 1-473): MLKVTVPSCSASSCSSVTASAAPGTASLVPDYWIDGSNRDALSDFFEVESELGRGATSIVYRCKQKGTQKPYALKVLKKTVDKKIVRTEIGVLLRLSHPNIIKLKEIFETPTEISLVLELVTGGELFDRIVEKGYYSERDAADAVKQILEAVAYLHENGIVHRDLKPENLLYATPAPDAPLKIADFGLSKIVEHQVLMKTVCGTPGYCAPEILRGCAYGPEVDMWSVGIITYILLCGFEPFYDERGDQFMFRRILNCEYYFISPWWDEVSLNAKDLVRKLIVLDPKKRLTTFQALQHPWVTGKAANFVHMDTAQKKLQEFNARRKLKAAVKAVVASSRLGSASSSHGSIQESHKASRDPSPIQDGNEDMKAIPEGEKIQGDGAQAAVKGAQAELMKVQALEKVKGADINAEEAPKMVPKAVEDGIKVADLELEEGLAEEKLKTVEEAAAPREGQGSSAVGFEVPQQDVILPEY
Description: as §1
The dose-dependent inhibitory effect of KN62 and KN93 on CaMKIV transiently expressed in HEK293 cells was determined. CaMKIV can activate CREB and stimulate CREB-mediated transcription through the direct phosphorylation of CREB on Ser-133. To measure the CaMKIV activity by CREB activity assay, the CaMKIV expression plasmids and a CREB luciferase reporter system were cotransfected into HEK293 cells in this study. The calcium ionophore ionomycin treatment can lead to an increase in intracellular Ca^2+ and Ca^2+/CaM levels, which influence CaMKIV activity in cells. Ionomycin (5 μM) can dramatically increase CREB activity in HEK293 cells expressing CaMKIV. The CREB activity is 5.5±0.2 times that of unstimulated cells (p<0.0001, compared to the unstimulated cells, n=4 wells, FIG. 8A).

mouse CaMKIV = assay: siRNA knock-down of CaMKIV expression in cultured cortical neurons (western blot); format: cell-based; details: 30 nM siRNA, 48 h after transfection, n=3 experiments
Description: Cortical neurons were prepared from postnatal day 0 (P0) mice. All procedures were reviewed and approved by the Institutional Animal Care and Use Committee at University of Toronto, in accordance with the guidelines of the Canadian Council on Animal Care. The Cerebral cortexes were dissected, minced, and trypsinized for 15 min using 0.125% trypsin (Invitrogen, CA). Cells were seeded at the density of 4˜5×10^5 cells/cm^2 onto 60 mm dishes or 96-well plates precoated with 50 μg/ml poly-D-lysine (Sigma, Mo.) in water, and grown in Neurobasal-A medium (Invitrogen, CA) supplemented with B27 and GlutaMax (Invitrogen, CA). The cultures were incubated at 37° C. in 95% air, 5% carbon dioxide with 95% humidity.
sequence 1: sense 5′-[…]tt-3′, antisense 5′-[…]tt-3′ and sequence 2: sense 5′-[…]tt-3′, antisense 5′-[…]tt-3′, respectively (Ambion, Tex.). The annealed siRNA was reconstituted at the concentration of 100 μM for transfection. […] Cells were harvested and analyzed 48 h after transfection.
The cultured cortical neurons were harvested and homogenized in lysis buffer containing proteinase inhibitor cocktail (Sigma, Mo.). Protein was quantified by Bradford assay, and electrophoresis of equal amounts of total protein was performed on SDS-polyacrylamide gels. […] The density of immunoblots was measured using NIH ImageJ software.

| Compound | CREB activity, % of the control level ([5]; 0.01 μM inhibitor) [%] | CREB activity, % of the control level ([5]; 0.1 μM inhibitor) [%] | CREB activity, % of the control level ([5]; 1.0 μM inhibitor) [%] | CREB activity, % of the control level ([5]; 10 μM inhibitor) [%] | CREB activity, % of the control level ([5]; 50 μM inhibitor) [%] | CREB activity, % of the control level ([5]; 100 μM inhibitor) [%] | IC50 [5] [µM] | also measured |
| --- | --- | --- | --- | --- | --- | --- | --- | --- |
| CN1CC[C@]23c4c5ccc(O)c4O[C@H]2[C@@H](O)C=C[C@H]3[C@H]1C5 [morphine] |  |  |  |  |  |  |  | decrease of the frequency of sIPSCs ([1]; acutely applied morphine, CaMKIV KO mice, n=6): 66.2±4.0%; decrease of the frequency of sIPSCs ([1]; acutely applied morphine, WT mice, n=7): 68.9±10.4%; decrease of the frequency of sIPSCs ([1]; slices pre-incubated in morphine at least 1 hour, CaMKIV KO mice, n=9): 55.7±6.9%; decrease of sIPSCs (in words) ([1]; slices pre-incubated in morphine at least 1 hour, WT mice, n=8, p>0.05): did not decrease; pCREB expression in spinal cord (western blot) ([2]; CaMKIV KO mice): absent; pCREB expression in spinal cord (western blot) ([2]; WT mice, p<0.001): significantly increased; pCREB in layer I and II of the dorsal horn (immunostaining) [3]: significantly increased |
| C[C@H](CCC(=O)O)C[C@H](C)C[C@H](C)C(=O)/C=C(\O)[C@H](C)C[C@H](C)C/C=C/[C@@H](C)[C@@H](O)[C@@H](C)[C@@H](O)C[C@@H]1CC[C@@](C)([C@H]2CC[C@@](C)([C@@H](C)O)O2)O1 [Ionomycin, ionomycin] |  |  |  |  |  |  |  | CREB activity, times that of unstimulated cells [4]: 5.5±0.2 times |
| CN([C@@H](Cc1ccc(OS(=O)(=O)c2cccc3cnccc23)cc1)C(=O)N1CCN(c2ccccc2)CC1)S(=O)(=O)c1cccc2cnccc12 [KN62, 4-[(25)-2-[(5-isoquinolinylsulfonyl)methylamino]-3-oxo-3-(4-phrenyl-1-piperazinyl)propyl]phenyl isoquinolinesulfonic acid ester] | 98.4±0.8 | 85.3±1.2 | 55.5±2.5 | 11.5±2.6 | 1.3±2.9 | 1.2±1.4 | 1.06 |  |
| sequence 1: siRNA for mouse CaMKIV: sense 5′-GCAUGAUAUGCACUAAUAGtt-3′, antisense 5′-CUAUUAGUGCAUAUCAUGCtt-3′ (sense GCAUGAUAUGCACUAAUAGTT; antisense CUAUUAGUGCAUAUCAUGCTT; chemistry not given here) |  |  |  |  |  |  |  | expression level of CaMKIV, % of the control (mouse CaMKIV): 50.6±5.9% |
| COc1ccc(S(=O)(=O)N(CCO)c2ccccc2CN(C)CC=Cc2ccc(Cl)cc2)cc1 [KN93, N-[2-[[[3-(4-Chlorophenyl)-2-propenyl]methylamino]methyl]phenyl]-N-(2-hydroxyethyl)-4-methoxybenzenesulphonamide] | 93.1±0.9 | 77.7±2.5 | 40.8±2.7 | 5.3±1.5 | 1.3±0.7 | 1.1±0.9 | 0.58 |  |
| sequence 2: siRNA for mouse CaMKIV: sense 5′-CGGCUGACUACAUUUCAAGtt-3′, antisense 5′-CUUGAAAUGUAGUCAGCCGtt-3′ (sense CGGCUGACUACAUUUCAAGTT; antisense CUUGAAAUGUAGUCAGCCGTT; chemistry not given here) |  |  |  |  |  |  |  | knock down of the expression of CaMKIV (in words) (mouse CaMKIV): could not knock down |
